Measurements as given in patent publication US10611728B2, “Isoindoline compositions and methods for treating neurodegenerative disease” (priority 2014, dated 2020).
Entries after “also recorded” stand apart in the source; their conditions may differ.

Columns and labels:
[1] = system: caspase-3; conditions: cited from earlier work; for caspase-3 activation by ligand: tumor cells and neurons
[2] = system: neurons; conditions: neuronal cultures treated 24 hours; cited from earlier work
[3] = system: neuronal cultures; experiment: Functional neuronal phenotype in neuronal cultures; format: cell-based
Experimental: Neuronal cultures are treated with various concentrations of sigma compounds for 24 hours and nuclear intensity compared to vehicle is measured.

[4] = Microsomal stability in mouse liver microsomes (MLM); format: in vitro ADME; conditions: mouse, microsomes
Experimental: A first pharmacokinetic study was performed in microsomes of mice mouse liver microsomes, MLM) by a commercial contract research organization. The studies were performed according to Obach, R. S et al. (1997) J. Pharmacol. Exp. Ther., 283: 46-58, which is incorporated herein by reference.

Mouse liver microsomes, MLM t½ [4] [min]	SMILES	caspase-3 activation by ligand [1]	inhibition of caspase-3 activation in tumor cells ([1]; tumor cells)	nuclear morphology / nuclear intensity in neurons [2]	neuronal phenotype [3]
	COc1cc2c(cc1OC)CN(CCCCNC(=O)c1cc(C)ccc1OC)CC2 [RHM-1, N-[4-(3,4-dihydro-6,7-dimethoxyisoquinolin-2(1H)-yl)butyl]-2-methoxy-5-methylbenzamide]	do not induce caspase-3 activity	inhibits the activation in tumor cells	do not decrease nuclear intensity	
	COc1ccc(C)cc1NC(=O)OC1C[C@H]2CCC[C@@H](C1)N2CCCCCCN (stereo partly shown) [SV-119]	activate caspase-3 in tumor cells and neurons		cause significant abnormal nuclear morphology in neurons	
	Fc1ccc(-n2cc(CCCCN3CCC4(CC3)OCc3ccccc34)c3ccccc32)cc1 [Siramesine]	activate caspase-3 in tumor cells and neurons; also recorded: induces caspase-3 activity		cause significant abnormal nuclear morphology in neurons	
4	CC(C)Oc1cc(CC[C@@H](C)N2Cc3cc4c(cc3C2)OCO4)ccc1O [compound 25]				Inactive/IAACon
6	CC(C)Oc1cc(CCC(C)(C)N2Cc3cc4c(cc3C2)OCO4)ccc1O [compound 29]				Inactive/IAACon

SMILES	Mouse liver microsomes, MLM t½ [4] [min]	caspase-3 activation by ligand [1]	inhibition of caspase-3 activation in tumor cells ([1]; tumor cells)	nuclear morphology / nuclear intensity in neurons [2]	neuronal phenotype [3]
C[C@H](CCc1ccc(OC(=O)N(C)C)c(OC(F)(F)F)c1)N1Cc2cccc(F)c2C1 [compound 41]	9				Inactive/IAACon
